Results on 8 compounds are retold here after patent publication US7659244B2, “Rapamycin peptides conjugates: synthesis and uses thereof” (Quest Pharmatech, Inc., priority 2004, dated 2010).

In test [1] the test system is A431. As to the kind of experiment: cells. To be noted: Homo sapiens, A-431, 96 h, read-out: Inhibition of H^3 Thymidine uptake (IC50 in nM).
Protocol: (§1) Quantification of cell proliferation and cell viability was determined by measuring the amount of radioactive [^3H-methyl]-thymidine incorporated into DNA.
(§2) Cell culture: For each cell line, culture was carried according to the ATCC Product Information Sheet provided. Cell lines were always freshly thawed prior to each experiment. For all experiments exponentially growing cells were harvested and centrifuged at 1100 rpm, the spent medium was aspirated and cell pellets were resuspended in fresh complete medium. Viable cells were enumerated by trypan blue exclusion using a hemacytometer.
(§3) Cells were then seeded in 96 well tissue culture plates in a total volume of 100 μL/well. A preliminary experiment should be performed to determine the most appropriate cell density for each individual cell line. Cells were allowed to attach and acclimate overnight.
(§4) Addition of test compounds: Each test compound was dissolved in DMSO at a final concentration of 2 mM. Each stock compound was then diluted in complete medium (1:100) to obtain a 20 μM working solution. The working solution was used for further serial dilutions to obtain concentrations of 200 nM, 20 nM, 2 nM, 0.2 nM and 0.02 nM. 100 μL of each dilution was added to the 100 μL cell cultures (3 replicates),. to give final test concentrations of 100 nM, 10 nM, 1 nM, 0.1 nM and 0.01 nM. Using this system of dilutions, the maximum concentration of DMSO to which the cells were exposed was 0.01% v/v. Therefore, 0.01% DMSO was added to control cells to which no test compounds was added. On each plate two positive controls were included: Adriamycin Hydrochloride and Rapamycin. For each positive control 3 concentrations were chosen in a range that achieved an LC50, this range is cell line specific and must be predetermined in a pilot experiment. Plates were incubated for 96 hours prior to harvesting. [^3H-methyl]-thymidine incorporation: After 80 hours incubation, 10 μL (0.5 μCi) of [^3H-methyl]-thymidine diluted in 1× HBSS was added and plates were incubated overnight.
(§5) Growth medium was removed from each well and 100 uL of Trypsin-EDTA was added. The plate was incubated at 37° C. until cells were trypsinized (check under microscope). The detached cells were harvested using a semiautomatic cell harvester. Filters were dried prior to addition to scintillation vials. two mL of scintillation fluid was automatically dispensed into each vial and counting was effected on program 1 (^3H, 1 min, DPM).
(§6) The average and standard error from the DPM counts of replicate samples were calculated.
For test [2], the system named is Lncap. The test is described as follows: cells. To be noted: Homo sapiens, 96 h, read-out: Inhibition of H^3 Thymidine uptake (IC50 in nM).
Protocol: as §1, §2, §3, §4, §5, §6
In test [3] the test system is LS174T. As to the kind of experiment: cells. The conditions noted are these: Homo sapiens, 96 h, read-out: Inhibition of H^3 Thymidine uptake (IC50 in nM).
Protocol: as §1, §2, §3, §4, §5, §6
Test [4] relates to MCF-7. The test is described as follows: cells. The conditions noted are these: Homo sapiens, MCF7, 96 h, read-out: Inhibition of H^3 Thymidine uptake (IC50 in nM).
Protocol: as §1, §2, §3, §4, §5, §6
The test system of test [5] is OVCAR-3. The test is described as follows: cells. To be noted: Homo sapiens, OVCAR-3, 96 h, read-out: Inhibition of H^3 Thymidine uptake (IC50 in nM).
Protocol: as §1, §2, §3, §4, §5, §6
For test [6], the system named is SKMEL-2. As to the kind of experiment: cells. To be noted: Homo sapiens, SK-MEL-2, 96 h, read-out: Inhibition of H^3 Thymidine uptake (IC50 in nM).
Protocol: as §1, §2, §3, §4, §5, §6
Test [7] has as its system SK-N-SH. The test is described as follows: cells. To be noted: Homo sapiens, 96 h, read-out: Inhibition of H^3 Thymidine uptake (IC50 in nM).
Protocol: as §1, §2, §3, §4, §5, §6
Test [8] deals with SKOV-3. As to the kind of experiment: cells. The conditions noted are these: Homo sapiens, SK-OV-3, 96 h, read-out: Inhibition of H^3 Thymidine uptake (IC50 in nM).
Protocol: as §1, §2, §3, §4, §5, §6
Test [9] relates to D341. The test is described as follows: cells. To be noted: Homo sapiens, D341, 96 h, read-out: Inhibition of H^3 Thymidine uptake (IC50 in nM).
Protocol: as §1, §2, §3, §4, §5, §6
For test [10], the system named is various cell lines. The conditions noted are these: in vitro; cited from earlier work.
The subject of test [11] is A431. The conditions noted are these: read-out: Inhibition of H^3 Thymidine uptake (IC50 in nM); A431 cells, 96 hours incubation.
Protocol: as §1, §2, §3, §4, §5, §6
Test [12] concerns Lncap. The conditions noted are these: read-out: Inhibition of H^3 Thymidine uptake (IC50 in nM); Lncap cells, 96 hours incubation.
Protocol: as §1, §2, §3, §4, §5, §6
For test [13], the system named is LS174T. The conditions noted are these: read-out: Inhibition of H^3 Thymidine uptake (IC50 in nM); LS174T cells, 96 hours incubation.
Protocol: as §1, §2, §3, §4, §5, §6
Test [14] concerns MCF-7. The conditions noted are these: read-out: Inhibition of H^3 Thymidine uptake (IC50 in nM); MCF-7 cells, 96 hours incubation.
Protocol: as §1, §2, §3, §4, §5, §6
In test [15] the test system is OVCAR-3. To be noted: read-out: Inhibition of H^3 Thymidine uptake (IC50 in nM); OVCAR-3 cells, 96 hours incubation.
Protocol: as §1, §2, §3, §4, §5, §6
Test [16] deals with SKMEL-2. The conditions noted are these: read-out: Inhibition of H^3 Thymidine uptake (IC50 in nM); SKMEL-2 cells, 96 hours incubation.
Protocol: as §1, §2, §3, §4, §5, §6
Test [17] concerns SK-N-SH. The conditions noted are these: read-out: Inhibition of H^3 Thymidine uptake (IC50 in nM); SK-N-SH cells, 96 hours incubation.
Protocol: as §1, §2, §3, §4, §5, §6
In test [18] the test system is SKOV-3. The conditions noted are these: read-out: Inhibition of H^3 Thymidine uptake (IC50 in nM); SKOV-3 cells, 96 hours incubation.
Protocol: as §1, §2, §3, §4, §5, §6
Test [19] concerns D341. To be noted: read-out: Inhibition of H^3 Thymidine uptake (IC50 in nM); D341 cells, 96 hours incubation.
Protocol: as §1, §2, §3, §4, §5, §6

Structures can show the parent of a compound that is named as a salt. Where two headings read alike, the source gives them in different places.

Broadly, the IC50 is the concentration needed to halve the response being measured.

`COc1cccc2c1C(=O)c1c(O)c3c(c(O)c1C2=O)C[C@@](O)(C(=O)CO)C[C@@H]3O[C@H]1C[C@H](N)[C@H](O)[C@H](C)O1` [Adriamycin, Adriamycin Hydrochloride]: the IC50 stood at 50.4 nM in test [1]; 2.54 nM in test [2]; 4.04 nM in test [3]; 3.11 nM in test [4]; 4.77 nM in test [5]; 1.93 nM in test [6]. Besides, the values for the IC50 in test [7], in test [8] and in [9] were 0.896 nM, 130 nM and 7.02 nM, respectively.
Turning to `CO[C@H]1C[C@@H]2CC[C@@H](C)[C@@](O)(O2)C(=O)C(=O)N2CCCC[C@H]2C(=O)O[C@H]([C@H](C)C[C@@H]2CC[C@@H](OC(=O)C(C)(CO)CO)[C@H](OC)C2)CC(=O)[C@H](C)/C=C(\C)[C@@H](O)[C@@H](OC)C(=O)[C@H](C)C[C@H](C)/C=C/C=C/C=C/1C` [CCI-779], the IC50 in test [10] is less than 10 nM.
`CO[C@H]1C[C@@H]2CC[C@@H](C)[C@@](O)(O2)C(=O)C(=O)N2CCCC[C@H]2C(=O)O[C@H]([C@H](C)C[C@@H]2CC[C@@H](O)[C@H](OC)C2)CC(=O)[C@H](C)/C=C(\C)[C@@H](O)[C@@H](OC)C(=O)[C@H](C)C[C@H](C)/C=C/C=C/C=C/1C` [Compound 5, Rapamycin]: the IC50 came to 341 nM in test [1]; 30.3 nM in [2]; 980 nM in test [3]; 0.408 nM in [4]; 44.5 nM in test [5]; 1.12 nM in test [6]. Moreover, the IC50 was 1.33 nM in test [7], 0.392 nM in test [8] and 1.56 nM in [9].
`CO[C@H]1C[C@@H]2CC[C@@H](C)[C@@](O)(O2)C(=O)C(=O)N2CCCC[C@H]2C(=O)O[C@H]([C@H](C)C[C@@H]2CC[C@@H](OC(=O)N[C@@H](CO)[C@H](C)O)[C@H](OC)C2)CC(=O)[C@H](C)/C=C(\C)[C@@H](O)[C@@H](OC)C(=O)[C@H](C)C[C@H](C)/C=C/C=C/C=C/1C` [Compound 7q, Rapamycin-42-O-ester-(2S,3S)-2-amino-1,3-butanediol]: the IC50 in test [11] stood at 313 nM; in test [12] it was 17.4 nM; in test [13], 1630 nM; in test [14], 1.29 nM; in test [15] it was 56.5 nM; in test [16] it was 9.15 nM. Also, the half-inhibitory concentration (IC50) in test [17] was determined as 5.25 nM; in test [18], 6.35 nM; in test [19], 25.2 nM.
As for `CO[C@H]1C[C@@H]2CC[C@@H](C)[C@@](O)(O2)C(=O)C(=O)N2CCCC[C@H]2C(=O)O[C@H]([C@H](C)C[C@@H]2CC[C@@H](OC(=O)N[C@H](CO)[C@@H](C)O)[C@H](OC)C2)CC(=O)[C@H](C)/C=C(\C)[C@@H](O)[C@@H](OC)C(=O)[C@H](C)C[C@H](C)/C=C/C=C/C=C/1C` [Compound 7r, Rapamycin-42-O-ester-(2R,3R)-2-amino-1,3-butanediol], the half-maximal inhibitory concentration (IC50) in test [11] worked out at 191 nM; in test [12] it was 21.8 nM; in test [13], 1410 nM; in test [14] it was 1.86 nM; in test [15], 47.2 nM; in [16], 8.32 nM. The figures for the IC50 in test [17], in [18] and in [19] were 4.84 nM, 6.44 nM and 5.5 nM, respectively.
Take `COC1CC2CCC(C)C(O)(O2)C(=O)C(=O)N2CCCCC2C(=O)OC(C(C)CC2CCC(OC(=O)NC(CO)CC(C)C)C(OC)C2)CC(=O)C(C)C=C(C)C(O)C(OC)C(=O)C(C)CC(C)C=CC=CC=C1C` [Compound 7t, Rapamycin-42-O-ester-(S)-(+)-2-amino-4-methyl pentanol]: the IC50 in test [11] is 278 nM; in test [12], 202 nM; in [13], 24000 nM; in test [14] it was 53.3 nM; in test [15], 367 nM; in [16], 73.2 nM. Also, the values for the IC50 in test [17], in [18] and in test [19] were 99.3 nM, 64.1 nM and 61.2 nM, respectively.
Turning to `CO[C@H]1C[C@@H]2CC[C@@H](C)[C@@](O)(O2)C(=O)C(=O)N2CCCC[C@H]2C(=O)O[C@H]([C@H](C)C[C@@H]2CC[C@@H](OC(=O)NC(CO)(CO)CO)[C@H](OC)C2)CC(=O)[C@H](C)/C=C(\C)[C@@H](O)[C@@H](OC)C(=O)[C@H](C)C[C@H](C)/C=C/C=C/C=C/1C` [Compound 7u, Rapamycin-42-O-ester-Tris(hydroxymethyl)amino methane], the IC50 in test [11] was determined as 282 nM; in test [12], 14 nM; in [13], 1590 nM; in test [14], 1.54 nM; in test [15] it was 56.6 nM; in test [16], 6.15 nM. Moreover, the IC50 in test [17] was determined as 6.4 nM; in test [18] it was 8.08 nM; in test [19] it was 20.8 nM.
“Rapamycin-42-O-ester-(R) (+)-2-amino-3-phenyl-1-propanol [Compound 7k]”: the IC50 is 550 nM in test [11]; 146 nM in test [12]; 1380 nM in [13]; 15.9 nM in [14]; 296 nM in test [15]; 109 nM in test [16]. Moreover, the IC50 stood at 71.3 nM in test [17], 66 nM in [18] and 259 nM in test [19].
